These results are taken from patent US8609718B2, “Pharmaceutical composition used in treatment of hyperproliferative skin conditions and malignant melanomas comprising pachastrissamine as active ingredient” (Catholic University Industry Academy Cooperation Foundation, priority 2009, dated 2013).

Molecules are shown by their SMILES. “Also recorded” adds a separate entry of the source.

The test system of data set [1] is HaCaT cell line. Nature of the data set: MTT cell viability analysis (cytotoxicity), HaCaT. The format is cell-based, human. To be noted: 24 hours, FIG. 1. The protocol:
(§1) Pachastrissamine's cytotoxicity on a HaCaT cell line and a malignant melanoma cell line was researched through MTT cell viability analysis.
(§2) First, each of a HaCaT cell line (German Cancer Research, obtained from prof. N. Fuseni, Germany), and two kinds of malignant melanoma cell lines, B16F10 (B16) and A375 were inoculated into a DMEM (Dulbecco's Modified Eagle's Medium) culture medium added with 10% FBS (Thermo Fisher Scientific Inc.), 100 unit/ml penicillin, and 100 μg/ml streptomycin, and then cultured in a CO2 incubator (Form a Scientific, Inc.) (37° C., 5%).
(§3) The cultured HaCaT, B16F10, and A375 cells were plated onto a 96-well plate at a concentration of 5×10^4 cells/well, and cultured in a CO2 incubator (37° C., 5%) for 24 hours. The cells in respective wells were treated with pachastrissamine and phytosphingosine at various concentrations of 0, 0.9, 1.8, 3.7, 7.5, 10 μg/ml, and cultured in a CO2 incubator (37° C., 5%) for 24 hours. After the culturing, in a state where the culture medium existed, each well was added with 5 mg/ml MTT reagent at a concentration of 20 μl/[…], and cultured in an incubator for 2 hours. After 2 hours, the culture medium was removed, and each well was added with 150 μl of DMSO (dimethyl sulfoxide). Then, a spectrophotometer was used to measure the absorbance at 540 nm, thereby analyzing the cell viability. Herein, the cell viability was represented as a relative value with respect to 100% of cell viability in a control group not treated with pachastrissamine and phytosphingosine.

Data set [2] has as its system malignant melanoma cell line B16F10. Put plainly: MTT cell viability analysis (cytotoxicity), B16F10. Conditions: 24 hours, FIG. 1. The format is cell-based. As for the experimental part: as §1, §2, §3
Data set [3] deals with HaCaT cell line. Put plainly: Cell counting by hemocytometer, trypan blue exclusion, HaCaT. The format is cell-based, human. The protocol:
(§4) A HaCaT cell line was cultured in the same manner as described in Example 1. The cultured HaCaT cell line was plated onto a 60 mm plate at a concentration of 5×10^4 cells/well, and cultured in a CO2 incubator (37° C., 5%) for 24 hours. The cultured cells in respective plates were treated with pachastrissamine at a concentration of 10 μg/ml, and cultured in a CO2 incubator (37° C., 5%) for 24, 36, and 48 hours, respectively. After the culturing, the cells were washed with PBS, treated with trypsin-EDTA, and completely detached from the plate. Then, a hemocytometer was used to count the cells through trypan blue exclusion.
HaCaT, B16F10 and A375 cell lines were cultured in the same manner as described in Example 1. The cultured HaCaT cell line was plated onto a 60 mm plate at a concentration of 5×10^4 cells/well, and cultured in a CO2 incubator (37° C., 5%) for 24 hours. The cultured respective cells were divided into 4 groups. One group was added with only pachastrissamine (PA) at a concentration of 10 μg/ml; another group was added with lithium chloride (apoptosis inhibiting material) (at a final concentration of 300 nM) as well as pachastrissamine at a concentration of 10 μg/ml (PA+Li); and a third group was added with only lithium chloride (Li). The last group was a negative control group (Con) and was added with nothing. These groups were cultured in a CO2 incubator (37° C., 5%) for 24 hours, and then the number of cells were measured in the same manner as described in Example 2-2.

In data set [4] the test system is B16F10 cell line. Nature of the data set: Cell counting by hemocytometer, trypan blue exclusion, B16F10. The format is cell-based. To be noted: 24 hours. The protocol: as §4
(§5) HaCaT, B16F10 and A375 cell lines were cultured in the same manner as described in Example 1. The cultured HaCaT cell line was plated onto a 60 mm plate at a concentration of 5×10^4 cells/well, and cultured in a CO2 incubator (37° C., 5%) for 24 hours. The cultured respective cells were divided into 4 groups. […] These groups were cultured in a CO2 incubator (37° C., 5%) for 24 hours, and then the number of cells were measured in the same manner as described in Example 2-2.

Data set [5] relates to A375 cell line. Put plainly: Cell counting by hemocytometer, trypan blue exclusion, A375. The format is cell-based. Conditions: 24 hours. The protocol: as §4, §5
Data set [6] has as its system ERK. Nature of the data set: Western blotting of ERK activity (pERK) in HaCaT. The format is cell-based, human. To be noted: pachastrissamine 10 μg/ml, U0126 20 nM, 30 minutes, FIG. 3C. The protocol:
A HaCaT cell line was cultured in the same manner as described in Example 1. […] The last group was a negative control group (−) and was added with nothing.

Data set [7] deals with ERK. Nature of the data set: Western blotting of EGF-induced ERK activity in HEK293T. The format is cell-based. Conditions: with 100 μg/ml of EGF, FIG. 3D. As for the experimental part:
In the same manner, in a sample of HEK293T (Kidney epithelial cell) cell line treated with pachastrissamine and 100 μg/ml of EGF (epidermal growth factor), ERK activity was determined (see FIG. 3D).
A general note: A western blot detects proteins with antibodies after separation by electrophoresis.

The subject of data set [8] is p-FoxO3a (Ser 253). Nature of the data set: Western blotting of p-FoxO3a (Ser 253). The format is cell-based. To be noted: HaCaT, A375, B16F10, 10 μg/ml, FIGS. 4B, 4C. As for the experimental part:
In the same manner as described in Example 4-1, a HaCaT cell line and malignant melanoma cell lines (A375 and B16F10) were treated with pachastrissamine and phytosphingosine at a concentration of 10 μg/ml for 30 minutes and 60 minutes, respectively. Then, western blotting was carried out using p-FoxO3a (Ser 253) antibody.

Data set [9] relates to GSK3-beta / beta-catenin. Nature of the data set: Western blotting of pGSK3-beta, GSK3-beta, pCatenin and Catenin in HaCaT. Conditions: 30 minutes, FIG. 5A. The format is cell-based, human. As for the experimental part:
The pachastrissamine's effect on beta-catenin protein expression was researched. In the same manner as described in Example 1, a HaCaT cell line was cultured.

Data set [10] relates to beta-catenin. Nature of the data set: Beta-catenin protein in malignant melanoma cell line (FIG. 5B). The format is cell-based.
The mark [11] stands for this setting: 0, 0.9, 1.8, 3.7, 7.5, 10 μg/ml.
Setting [12] is: pachastrissamine 10 μg/ml + lithium chloride 300 nM (PA+Li).
The mark [13] stands for this setting: pachastrissamine 10 μg/ml, LiCl 300 nM.

For the molecule `CCCCCCCCCCCCCC[C@@H]1OC[C@H](N)[C@@H]1O` [pachastrissamine], the “cell viability (number of surviving cells) with increasing concentration” value in data set [1] (setting [11]) and in data set [2] (setting [11]) was “the number of surviving cells was reduced” in each case. The “cytotoxicity compared with phytosphingosine” value in data set [1] and in data set [2] was “lower cytotoxicity than phytosphingosine” throughout. In [3] (10 μg/ml, 24, 36 and 48 hours, control group increased, FIG. 2b), the “number of cells over culturing time (cell proliferation)” value is “the number of cells decreased”. In addition, the “number of cells compared to no treatment” value in data set [3] (10 μg/ml, 24 hours, FIGS. 2C, 2D) was “the number of cells was decreased”; in [4] (10 μg/ml, FIGS. 2C, 2D), “the number of cells was decreased”; in [5] (10 μg/ml, FIGS. 2C, 2D), “the number of cells was decreased”. In addition, the “number of cells with lithium chloride as well as pachastrissamine, compared to only pachastrissamine” value is “the number of cells was higher” in [3] (pachastrissamine 10 μg/ml + lithium chloride 300 nM (PA+Li), 24 hours); “the number of cells was higher” in [4] (setting [12]); “the number of cells was higher” in data set [5] (setting [12]). Also, the “ERK activation (phosphorylation of ERK)” value in data set [6] was “almost completely inhibited the phosphorylation of ERK; also recorded: reduction of ERK activation”. Besides, the “ERK activity caused by EGF” value in data set [7] is “almost perfectly inhibit the ERK activity caused by EGF”. The “amount of expressed p-FoxO3a after 30 minutes” value in data set [8] (30 minutes) was “reduced”. For the same molecule, in data set [8] (60 minutes), the “expression of p-FoxO3a after 60 minutes” value is “increased an expression of p-FoxO3a”. In addition, the beta-catenin protein degradation result in data set [9] (10 μg/ml) was “induced the degradation of beta-catenin protein”. The “phosphorylation of GSK3-beta” value in [9] (setting [13]) is reported as “phosphorylation of GSK3-beta was inhibited”. Further, in data set [9] (setting [13]), the phosphorylation of beta-catenin result was “increasing the phosphorylation of beta-catenin”. In data set [10], the “beta-catenin protein degradation in malignant melanoma cell line” value is recorded as “can induce the degradation of beta-catenin protein”.
